Here are results for eleven compounds from ChEMBL document CHEMBL1201862, “PubChem BioAssay data set” (2004).

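Briefly, cells in 96-well plates were exposed to five compound concentrations for 48 h, and endpoints were estimated by linear interpolation. GI50 = concentration required for 50% inhibition of growth.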 Calls of active or inactive are those of the source. Rule as the data show it: active = GI50 up to about 1.1 µM and inactive = higher. Some results are limits rather than exact numbers.

Test systems include HL-60; A498; UO-31; MDA-MB-435; CCRF-CEM; HCT-15; SNB-75; HT-29; MDA-N; EKVX; HCC 2998; HOP-62; RXF 393; NCI-H522; 786-0; TK-10; NCI/ADR-RES; MCF7; K562; T47D.
Assay in all cases: inhibition of tumour cell growth, NCI panel, 48 h

Take `O=C(O)CN(CC(=O)O)Cc1cc(C#Cc2ccc(C#Cc3ccccc3)cc2)cc(CN(CC(=O)O)CC(=O)O)n1`: the GI50 in the test on HL-60 is 12.9 µM (inactive); in the test with A498, 40.6 µM (inactive); with UO-31, 5.68 µM (inactive); in the test on MDA-MB-435, 22.8 µM (inactive); with CCRF-CEM, 29.4 µM (inactive); in the test with HCT-15, 5.98 µM. Besides, the GI50 in the test with SNB-75 is 31.6 µM (inactive); in the test with HT-29, 12.9 µM (inactive); in the test on MDA-N it was 35.6 µM (inactive); in the test with EKVX it was 20.3 µM (inactive); in the test with HCC 2998 it was 4.63 µM (inactive); with HOP-62 it was 18.4 µM (inactive). Moreover, the GI50 in the test with RXF 393 was 15.7 µM (inactive); with NCI-H522, 17.2 µM (inactive); in the test on 786-0, 13.1 µM (inactive); in the test with TK-10 it was 17.5 µM (inactive); in the test on NCI/ADR-RES, 12.7 µM (inactive); in the test with MCF7, 16.5 µM (inactive). In addition, the GI50 in the test with K562 was 33 µM (inactive).
`C=C1CN=C(Nc2ccc(F)cc2F)S1`: the GI50 is 31.5 µM (inactive) with HL-60; > 100 µM (inactive) in the test on A498; > 100 µM (inactive) in the test with UO-31; 18.3 µM (inactive) with CCRF-CEM; over 100 µM in the test on HCT-15; 32.1 µM (inactive) with SNB-75. In addition, the GI50 in the test with HT-29, in the test on MDA-N, in the test on EKVX, in the test on HCC 2998, in the test with HOP-62 and in the test on 786-0 was > 100 µM (inactive) in each case. The GI50 with TK-10 is > 100 µM (inactive); in the test with NCI/ADR-RES, > 100 µM (inactive); in the test with T47D, > 100 µM (inactive); in the test on MCF7 it was 28 µM (inactive); with K562 it was 30.5 µM (inactive).
Consider `S=C(N/N=C(/c1ccccc1)c1ccccn1)Nc1ccc(Cl)cc1`, for which the GI50 was < 0.01 µM (active) in the test with HL-60; 3.3 µM (inactive) in the test on A498; 0.543 µM (active) in the test with UO-31; 2.22 µM (inactive) in the test on MDA-MB-435; < 0.0155 µM (active) in the test with CCRF-CEM; 0.067 µM in the test with HCT-15. In addition, the GI50 was 2.06 µM (inactive) in the test with SNB-75; 0.0998 µM (active) with HT-29; 1.09 µM (active) with MDA-N; 0.462 µM (active) in the test with EKVX; 1.88 µM (inactive) with HCC 2998; 1.93 µM (inactive) in the test on HOP-62. Besides, the GI50 with RXF 393 is 1.85 µM (inactive); in the test on NCI-H522, 1.16 µM (inactive); in the test with 786-0, 1.05 µM (active); with TK-10, 0.551 µM (active); in the test on NCI/ADR-RES, 0.195 µM (active); with MCF7 it was 0.0258 µM (active). In addition, the GI50 in the test on K562 is < 0.01 µM (active).
Regarding `CCOc1ccc2nc(NC(=O)C(=O)C(c3cnc4ccccc4n3)[N+](=O)[O-])sc2c1` (stereo not drawn), the GI50 in the test on HL-60 is 56.2 µM (inactive); in the test with A498, > 100 µM (inactive); in the test with UO-31, 77.3 µM (inactive); in the test on CCRF-CEM it was 44.8 µM (inactive); with HCT-15, over 100 µM; with SNB-75 it was > 100 µM (inactive). Moreover, the GI50 was > 100 µM (inactive) in the test on HT-29; > 100 µM (inactive) in the test with MDA-N; 96.8 µM (inactive) in the test on EKVX; > 100 µM (inactive) in the test on HCC 2998; > 100 µM (inactive) in the test with HOP-62; > 100 µM (inactive) in the test with RXF 393. Besides, the GI50 in the test on NCI-H522 was 45.4 µM (inactive); in the test with 786-0, > 100 µM (inactive); in the test with TK-10, > 100 µM (inactive); with NCI/ADR-RES, > 100 µM (inactive); in the test on T47D it was > 100 µM (inactive); with MCF7, > 100 µM (inactive). In addition, the GI50 with K562 is 98.2 µM (inactive).
For the compound `C/C(=N/NC(=S)Nc1cccc(C)c1)c1ccccn1`, the GI50 in the test on HL-60 is < 0.01 µM (active); in the test with A498 it was 1.56 µM (inactive); in the test on UO-31 it was 0.285 µM (active); with MDA-MB-435 it was 1.35 µM (inactive); in the test with CCRF-CEM, < 0.01 µM (active); in the test with HCT-15, 0.0119 µM. Moreover, the GI50 in the test on SNB-75 is 2.11 µM (inactive); in the test with HT-29 it was < 0.01 µM (active); in the test with MDA-N, 1.35 µM (inactive); with EKVX, 0.0685 µM (active); in the test on HCC 2998, 1.91 µM (inactive); in the test on HOP-62, 0.0341 µM (active). For the same compound, the GI50 with RXF 393 is 1.12 µM (inactive); in the test with NCI-H522, 0.238 µM (active); in the test with 786-0, 0.0217 µM (active); in the test on TK-10, 0.274 µM (active); with NCI/ADR-RES it was < 0.01 µM (active); with MCF7, < 0.01 µM (active). In addition, the GI50 in the test with K562 was < 0.01 µM (active).
As for `CC(C)c1ccc(/C=C2\CSCC3=C2N=C(S)NC3c2ccc(C(C)C)cc2)cc1` (stereo not drawn), the GI50 in the test on HL-60 was 59.2 µM (inactive); in the test with UO-31, 70.6 µM (inactive); with CCRF-CEM it was 35.8 µM (inactive); in the test on HCT-15 it was 89.5 µM; in the test with HT-29, 45.1 µM (inactive); with MDA-N it was > 100 µM (inactive). For the same compound, the GI50 with EKVX was 61.8 µM (inactive); in the test with HCC 2998, 67.6 µM (inactive); with HOP-62 it was > 100 µM (inactive); in the test with RXF 393, 30.9 µM (inactive); in the test with NCI-H522, 53.6 µM (inactive); with 786-0, > 100 µM (inactive). The GI50 in the test with TK-10 is > 100 µM (inactive); in the test with NCI/ADR-RES, > 100 µM (inactive); with T47D it was 80.4 µM (inactive); with MCF7, 88.3 µM (inactive); in the test with K562, 34.8 µM (inactive).
`O=c1oc2ccccc2cc1-c1nc2ccccc2s1`: the GI50 was > 100 µM (inactive) with HL-60; 13.4 µM (inactive) in the test with A498; 5.83 µM (inactive) in the test with UO-31; 5.36 µM (inactive) in the test on MDA-MB-435; 29.6 µM with HCT-15; 6.3 µM (inactive) with SNB-75. Moreover, the GI50 with HT-29 was 11.2 µM (inactive); in the test with MDA-N, 15.2 µM (inactive); in the test on EKVX it was 11.5 µM (inactive); with HCC 2998, 37.2 µM (inactive); in the test on HOP-62, 6.14 µM (inactive); with RXF 393, 11.3 µM (inactive). Besides, the GI50 with NCI-H522 was 6.47 µM (inactive); in the test on 786-0 it was 4.58 µM (inactive); in the test with TK-10 it was 12.6 µM (inactive); with NCI/ADR-RES, 10 µM (inactive); in the test on T47D it was 10.7 µM (inactive); in the test with K562 it was 3.61 µM (inactive).
Consider `Cc1ccc2ccccc2c1CC1S(=O)(=O)OCCOS1(=O)=O`, for which the GI50 was 2.12 µM (inactive) with HL-60; 14.1 µM (inactive) in the test with UO-31; 8.67 µM (inactive) with MDA-MB-435; 6.31 µM (inactive) in the test with CCRF-CEM; 18.2 µM with HCT-15; 11.4 µM (inactive) in the test with HT-29. Further, the GI50 with MDA-N was 9.48 µM (inactive); in the test on EKVX, 16.2 µM (inactive); in the test on HCC 2998, 4.15 µM (inactive); in the test with HOP-62 it was 12.6 µM (inactive); with 786-0, 16.4 µM (inactive); in the test on TK-10, 16.6 µM (inactive). Besides, the values for the GI50 in the test on NCI/ADR-RES, with MCF7 and with K562 were 19.1 µM (inactive), 7.69 µM (inactive) and 9.12 µM (inactive), respectively.
On to `COC(=O)[C@@](NC(=O)OCc1ccccc1)([C@H](C)O)C(F)(F)F`, for which the GI50 with HL-60 was > 100 µM (inactive); in the test on A498, > 100 µM (inactive); in the test with UO-31 it was > 100 µM (inactive); in the test on MDA-MB-435 it was > 100 µM (inactive); in the test with CCRF-CEM it was 57.4 µM (inactive); in the test with HCT-15, over 100 µM. Further, the GI50 with SNB-75 was > 100 µM (inactive); in the test with HT-29 it was > 100 µM (inactive); in the test on EKVX, > 100 µM (inactive); with HCC 2998, > 100 µM (inactive); in the test on HOP-62, > 100 µM (inactive); in the test with RXF 393, 53.5 µM (inactive). Also, the GI50 in the test on NCI-H522, in the test with 786-0, with TK-10, in the test with NCI/ADR-RES, in the test with T47D and in the test on K562 was > 100 µM (inactive) each time.
Turning to `COC(=O)c1nc2c(C)c(O)c(O)c([C@H](C)CCC=C(C)C)c2o1`, the GI50 in the test with HL-60 was 16.7 µM (inactive); in the test on A498, 21.7 µM (inactive); in the test on UO-31 it was 17.7 µM (inactive); with MDA-MB-435, 26.8 µM (inactive); in the test on CCRF-CEM, 2.64 µM (inactive); in the test on HCT-15, 14 µM. Also, the GI50 was 18.2 µM (inactive) in the test on SNB-75; 19.5 µM (inactive) in the test with HT-29; 29.7 µM (inactive) with EKVX; 30.1 µM (inactive) in the test on HCC 2998; 16.5 µM (inactive) in the test on HOP-62; 21.4 µM (inactive) in the test on RXF 393. Moreover, the GI50 with 786-0 was 18.6 µM (inactive); with TK-10 it was 39 µM (inactive); in the test on NCI/ADR-RES, 25.2 µM (inactive); with T47D, 39.8 µM (inactive); in the test on MCF7, 36.3 µM (inactive); in the test on K562, 50.6 µM (inactive).
Consider `CC1(C)N=C2C(=O)c3c([nH]c4ccccc34)[C@]3(C)CCC1CC23` (stereo partly drawn), for which the GI50 in the test with HL-60 is > 6.25 µM (inactive); in the test with A498, > 6.25 µM (inactive); in the test on UO-31, > 6.25 µM (inactive); in the test with MDA-MB-435, > 6.25 µM (inactive); in the test on CCRF-CEM it was > 6.25 µM (inactive); with HCT-15, over 6.25 µM. Moreover, the GI50 with SNB-75, with HT-29, in the test on MDA-N, with EKVX, with HCC 2998 and in the test on HOP-62 was > 6.25 µM (inactive) in each case. Also, the GI50 in the test on RXF 393, in the test on NCI-H522, in the test on 786-0, in the test with TK-10, in the test with NCI/ADR-RES and in the test with MCF7 was > 6.25 µM (inactive) each time. The GI50 in the test on K562 was > 6.25 µM (inactive).
